ChEMBL document CHEMBL1141597, “2-Alkyl-4-aryl-pyrimidine fused heterocycles as selective 5-HT2A antagonists” (Bioorg Med Chem Lett, 2008)
Active and inactive are the calls of the source. The calls are words filed in the database; no cut-off is given here.

Columns and labels:
[1] = target: T1, 5-hydroxytryptamine receptor 2A (Homo sapiens, UniProt P28223); settings: NIH3T3
Description: Antagonist activity at human recombinant 5HT2A receptor expressed in mouse NIH3T3 cells assessed as increase in calcium levels

[2] = target: T2, 5-hydroxytryptamine receptor 2B (Homo sapiens, UniProt P41595); assay: Displacement of [3H]mesulergine from human recombinant 5HT2B receptor expressed in CHO cells; assay type: cell-based
T2 sequence (P41595 whole entry): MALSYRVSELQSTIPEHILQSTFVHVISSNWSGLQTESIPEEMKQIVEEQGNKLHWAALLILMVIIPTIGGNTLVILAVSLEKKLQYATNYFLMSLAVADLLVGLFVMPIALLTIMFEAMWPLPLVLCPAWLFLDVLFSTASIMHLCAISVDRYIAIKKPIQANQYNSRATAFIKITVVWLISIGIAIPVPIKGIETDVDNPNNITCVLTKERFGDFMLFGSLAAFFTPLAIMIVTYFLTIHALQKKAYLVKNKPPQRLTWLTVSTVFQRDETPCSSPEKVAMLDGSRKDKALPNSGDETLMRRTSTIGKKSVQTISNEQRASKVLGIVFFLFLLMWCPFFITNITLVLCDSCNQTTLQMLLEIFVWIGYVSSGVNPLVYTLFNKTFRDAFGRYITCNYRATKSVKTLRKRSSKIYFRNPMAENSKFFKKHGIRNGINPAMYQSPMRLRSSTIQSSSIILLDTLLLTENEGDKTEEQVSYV

[3] = target: T2, 5-hydroxytryptamine receptor 2B; assay: Antagonist activity at human recombinant 5HT2B receptor expressed in CHO cells assessed as increase in calcium levels; assay type: functional, cell-based
[4] = target: T1, 5-hydroxytryptamine receptor 2A; assay: Displacement of [3H]ketanserin from human recombinant 5HT2A receptor expressed in mouse NIH3T3 cells; assay type: cell-based
[5] = target: T3, 5-hydroxytryptamine receptor 2C (Homo sapiens, UniProt P28335); assay: Displacement of [3H]mesulergine from human recombinant 5HT2C receptor expressed in CHO cells; assay type: cell-based
T3 sequence (P28335 whole entry): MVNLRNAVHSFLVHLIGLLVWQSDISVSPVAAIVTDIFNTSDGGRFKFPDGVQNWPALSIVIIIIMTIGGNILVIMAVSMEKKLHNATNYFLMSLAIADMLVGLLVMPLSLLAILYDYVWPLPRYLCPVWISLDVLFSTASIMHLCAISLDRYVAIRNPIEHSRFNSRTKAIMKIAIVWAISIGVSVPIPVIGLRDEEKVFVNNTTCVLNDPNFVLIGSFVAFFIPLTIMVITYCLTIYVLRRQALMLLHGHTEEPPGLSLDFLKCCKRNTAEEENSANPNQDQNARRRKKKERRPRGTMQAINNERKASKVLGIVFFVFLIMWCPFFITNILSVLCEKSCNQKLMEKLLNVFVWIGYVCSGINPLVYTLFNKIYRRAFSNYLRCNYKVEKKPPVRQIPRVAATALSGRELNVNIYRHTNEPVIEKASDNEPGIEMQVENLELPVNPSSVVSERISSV

[6] = target: T3, 5-hydroxytryptamine receptor 2C; assay: Binding affinity at 5HT2C receptor
[7] = target: T2, 5-hydroxytryptamine receptor 2B; assay: Binding affinity at 5HT2B receptor
[8] = target: T1, 5-hydroxytryptamine receptor 2A; assay: Binding affinity at 5HT2A receptor

T1 sequence (P28223 whole entry): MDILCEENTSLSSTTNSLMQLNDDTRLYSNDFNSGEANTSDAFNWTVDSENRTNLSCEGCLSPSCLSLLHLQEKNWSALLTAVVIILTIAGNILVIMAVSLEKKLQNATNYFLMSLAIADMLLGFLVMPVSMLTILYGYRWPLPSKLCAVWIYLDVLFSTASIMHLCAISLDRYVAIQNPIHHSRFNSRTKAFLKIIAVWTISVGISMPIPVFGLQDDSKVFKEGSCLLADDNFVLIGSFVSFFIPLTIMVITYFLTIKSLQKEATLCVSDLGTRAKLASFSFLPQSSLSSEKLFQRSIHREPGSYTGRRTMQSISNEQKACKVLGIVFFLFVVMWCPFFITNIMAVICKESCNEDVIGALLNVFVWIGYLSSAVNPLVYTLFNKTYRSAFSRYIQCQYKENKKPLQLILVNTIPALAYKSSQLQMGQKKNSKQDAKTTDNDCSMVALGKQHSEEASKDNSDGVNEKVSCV

| SMILES | Ki [2] | Ki [4] | Ki [5] | also measured |
| --- | --- | --- | --- | --- |
| Fc1ccc(-c2nc(C3CCCC3)nc3c2CNCC3)cc1 | 220 nM | 2.2 nM | 110 nM | pKb [1]: 8.1; Activity [3]: inactive |
| Cc1ccc(-c2nc(Cc3ccccc3)nc3c2CCNCC3)cc1 | – | 0.4 nM | 15 nM | – |
| FC(F)(F)c1ccc(-c2nc(Cc3ccccc3)nc3c2CCNCC3)cc1 | – | 0.8 nM | – | – |
| CC(C)(C)c1nc2c(c(-c3ccc(F)cc3)n1)CNCC2 | – | 5 nM | 100 nM | – |
| Cc1nc2n(c(=O)c1CCN1CCC(c3noc4cc(F)ccc34)CC1)CCCC2 | – | – | – | Activity [3]: inactive |
| CCN(CC)c1nc2c(c(-c3ccc(C)cc3)n1)CNCC2 | – | – | – | Ki [6]: 300 nM; Ki [7]: 70 nM; Ki [8]: 20 nM |
| Cc1nc2c(c(-c3ccc(Cl)cc3)n1)CCNCC2 | 270 nM | 1200 nM | 5000 nM | – |
| Cc1nc2sccn2c(=O)c1CCN1CCC(=C(c2ccc(F)cc2)c2ccc(F)cc2)CC1 | – | – | – | Activity [3]: inactive |
| Fc1ccc(-c2nc(Cc3ccccc3)nc3c2CNCC3)cc1 | 2500 nM | 20 nM | 400 nM | – |
| Fc1ccc(-c2nc(C3CC3)nc3c2CNCC3)cc1 | – | 40 nM | 5000 nM | – |
| Fc1ccc(-c2nc(Cc3ccccc3)nc3c2CCNCC3)cc1 | – | 0.6 nM | – | – |
| Cc1ccc(-c2nc(C3CCCC3)nc3c2CCNCC3)cc1 | – | – | 23 nM | – |
| Fc1ccc(-c2nc(Cc3ccccc3)nc3c2CCNC3)cc1 | 310 nM | 9 nM | – | – |
| COc1cccc(C(O)C2CCN(CCc3ccc(F)cc3)CC2)c1OC (single isomer, unassigned) | – | – | – | Activity [3]: inactive |
| CN(C)CCO/N=C(/C=C/c1ccc(O)cc1)c1ccccc1F | – | – | – | Activity [3]: inactive |
| CC(C)c1nc2c(c(-c3ccc(F)cc3)n1)CCNCC2 | – | 4 nM | – | – |
| Fc1ccc(-c2nc(Cc3ccccc3)nc3c2CCCNC3)cc1 | – | 8.8 nM | 150 nM | – |
| Fc1ccc(-c2nc(-c3ccccc3)nc3c2CNCC3)cc1 | – | 50 nM | – | – |
| Fc1ccc(-c2nc(Cc3ccccc3)nc3c2CNCCC3)cc1 | 10000 nM | – | 5000 nM | – |
| Fc1ccc(Cc2nc3c(c(-c4ccc(F)cc4)n2)CNCC3)cc1 | – | 13 nM | – | pKb [1]: 7.1; Activity [3]: inactive |
| Fc1ccc(-c2nc(C3CCCC3)nc3c2CCNCC3)cc1 | – | 13 nM | – | – |
| N#Cc1ccc(-c2nc(C3CCCC3)nc3c2CCNCC3)cc1 | 20 nM | 34 nM | 460 nM | – |
| Fc1ccc(-c2nc(C3CCC3)nc3c2CNCC3)cc1 | 210 nM | 11 nM | 410 nM | – |
| Fc1ccc(Cc2nc3c(c(-c4ccc(F)cc4)n2)CCNCC3)cc1 | – | 0.7 nM | – | pKb [1]: 8.2; Activity [3]: inactive |
| COc1ccc(-c2nc(C3CCCC3)nc3c2CCNCC3)cc1 | 4.8 nM | 11 nM | 120 nM | – |
